Results from patent US20040259835A1, “Stabilized brivudine topical formulations” (priority 2001, published 2004).

tested on: not listed separately; assay: Photostabilization of brivudine by admixed substances (formulation not specified); format: physicochemical; conditions: not given
Source text: DE 3136282 proposes to protect light-unstable drugs using substances with a similar absorption profile. The protective effect is supposed to depend on the similarity between the absorption spectra of the stabilizer and of the drug, that is, the larger is the overlapping between the two absorption spectra, the better is the photo-stabilization. According to DE3136282, the ICH (International Conference on Harmonisation) guideline CPMP/ICH/279/95 was followed to determine brivudine degradation. Several substances, including pharmaceutical excipients, colorants or photostable drugs were tested in admixture with brivudine.

Compound | photostabilization of brivudine (in words) | degradation of brivudine (in words)
O=C(c1ccc(O)cc1O)c1ccc(O)cc1O [2,2′,4,4′-tetrahydroxybenzophenon, 2,2′,4,4′-tetrahydroxy-benzophenone] | effectively stabilize | –
COc1cc(O)c(C(=O)c2cc(S(=O)(=O)[O-])c(OC)cc2O)cc1S(=O)(=O)[O-].[Na+].[Na+] [2,2′-dihydroxy-4,4′-dimethoxybenzophenone-5,5′-disodium sulfonate] | effectively stabilize | –
O=C(c1ccccc1)c1ccc(O)cc1O [2,4-dihydroxy benzophenone] | effectively stabilize | –
COc1ccc(C(=O)c2ccccc2O)c(O)c1 [Dioxybenzone] | effectively stabilize | –
COc1ccc(C(=O)c2ccccc2)c(O)c1 [Oxybenzone] | effectively stabilize | –
CCCCC(CC)COC(=O)c1ccc(N(C)C)cc1 (centres unmarked) [Padimate O] | No effects | –
COc1cc(O)c(C(=O)c2ccccc2)cc1S(=O)(=O)O [Sulisobenzone] | effectively stabilize | –
O=S(=O)([O-])c1ccc(N=Nc2ccc(O)cc2O)cc1.[Na+] [Tropaeolin 0, 2,4-dihydroxyazobenzol-4′-sulfonic acid sodium salt] | best recovery rates | nearly no degradation of brivudine was detectable
CCCCC(CC)COC(=O)c1ccc(Nc2nc(Nc3ccc(C(=O)OCC(CC)CCCC)cc3)nc(Nc3ccc(C(=O)OCC(CC)CCCC)cc3)n2)cc1 (centres unmarked) [Uvinul® T150, 2,4,6-trianilino-p-(carbo-2′-ethyl-hexyl-1′-oxi)-1,3,5-triazin] | No effects | –
O=C(O)CCCCC1CCSS1 (stereo not drawn) [alpha-liponic acid] | did not show any effect | –
COc1ccc(C(=O)CC(=O)c2ccc(C(C)(C)C)cc2)cc1 [avobenzone] | stabilize brivudine, although to a lesser extent | –
CC1=C(/C=C/C(C)=C/C=C/C(C)=C/C=C/C=C(C)/C=C/C=C(C)/C=C/C2=C(C)CCCC2(C)C)C(C)(C)CCC1 [beta carotene, beta-carotene] | remarkable photostabilization | –
N[C@@H](CS)C(=O)O [cystein] | did not show any effect | –
CC1CC(OC(=O)c2ccccc2O)CC(C)(C)C1 (centres unmarked) [homosalate] | No effects | –
Cc1ccc(/C=C2/C(=O)C3(C)CCC2C3(C)C)cc1 (centres unmarked) [methyl-benzylidene-camphor] | stabilize brivudine, although to a lesser extent | –
CCCCC(CC)COC(=O)C(C#N)=C(c1ccccc1)c1ccccc1 (centres unmarked) [octocrylene] | stabilize brivudine, although to a lesser extent | –
CCCCC(CC)COC(=O)C=Cc1ccc(OC)cc1 (centres unmarked) [octyl-methoxy-cinnamate] | stabilize brivudine, although to a lesser extent | –

same assay, conditions: substance in admixture with brivudine, UV irradiation

Compound | photostabilization of brivudine (in words)
4-Bis(polyethoxy)paraamino-benzoicacid-polyethoxy-ethylester [Uvinul ® P25] | No effects
COc1cc(C=O)ccc1O [Vanillin] | did not satisfactorily stabilize brivudine
Type I: 2-(1,3-Dioxo-2-indanyl)-chinolin-disulfonic acid, Disodium salt Type II: 2-(1,3-Dioxo-2-indanyl)-methylchinolin-disulfonic acid, Disodium salt [Quinoline Yellow] | did not satisfactorily stabilize brivudine

same assay, conditions: versus controls

Compound | protection of brivudine from decomposition over the controls
O=S(=O)([O-])c1ccc2c(N=Nc3ccc(S(=O)(=O)[O-])c4ccccc34)c(O)c(S(=O)(=O)[O-])cc2c1.[Na+].[Na+].[Na+] [Food red 9, 3-Hydroxy-4-(4-sulfonato-1-naphtylazo)-naphthalin-2,7-disulfonic acid, Trisodium salt] | more than 30%

same assay, conditions: with respect to brivudine alone

Compound | fold increase of brivudine photostabilization / recovery
7-Hydroxy-8-(4-sulfonato-1-naphthylazo)-naphthalin-1,3-disulfonic acid, trisodium salt [Cochineal Red A] | more then threefold

tested on: not given; assay: not given; conditions: UV light; isomerization to Z-BVDU and other decomposition products; state of the art; cited from earlier work

Compound | light stability of brivudine (in words)
O=c1[nH]c(=O)n([C@H]2C[C@H](O)[C@@H](CO)O2)cc1/C=C/Br [brivudine, (E)-5-(2-bromovinyl)-2′-deoxyuridine] | light-instability

tested on: varicella-zoster virus (VZV); assay: not given; conditions: state of the art; cited from earlier work

Compound | effectiveness against VZV (in words)
O=c1[nH]c(=O)n([C@H]2C[C@H](O)[C@@H](CO)O2)cc1/C=C/Br [brivudine, (E)-5-(2-bromovinyl)-2′-deoxyuridine] | very effective

tested on: herpes simplex virus type 1 (HSV-1); assay: not given; conditions: state of the art; cited from earlier work

Compound | effectiveness against HSV-1 (in words)
O=c1[nH]c(=O)n([C@H]2C[C@H](O)[C@@H](CO)O2)cc1/C=C/Br [brivudine, (E)-5-(2-bromovinyl)-2′-deoxyuridine] | very effective
